We go through 9 compounds from patent US20080171740A1, “Chemical Compounds” (SMITHKLINE BEECHAM CORPORATION, priority 2004, published 2008).

What all share (assay type): cell-based
One data set addresses T1, CXCR4 receptor (Homo sapiens, UniProt P61073).
T1 construct: expressed in transfected cells; host or cells: HEK-293 cells (stably expressing human macrophage scavenging receptor) transduced with human CXCR4 BacMam and Gqi5 BacMam
As to the kind of experiment: Functional FLIPR assay (block of SDF-1 alpha induced [Ca2+]i change). Particulars: HEK-293 cells with human CXCR4 BacMam and Gqi5 BacMam; antagonism of SDF-1 alpha; read-out: Functional assay (pIC50) (converted). On the procedure:
Human embryonic kidney (HEK-293) cells were maintained and harvested as described above. Cells were plated in 96-well, black clear bottom, poly-lysine coated plates at a concentration of 40,000 cells per well in a final volume of 100 ul containing human CXCR4 BacMam (MOI=25) and Gqi5 BacMam (MOI=12.5). The cells were incubated at 37° C., 5% CO2, 95% humidity for 24 h to allow for protein expression.
After the required incubation time the cells were washed once with 50 ul of fresh serum-free DMEM/F12 media containing probenicid. 50 ul of dye solution was then added to the cells (Calcium Plus Assay Kit Dye; Molecular Devices) was dissolved in 200 ml of the above probenicid/BSA containing media and incubated for 1 h. Cell plates were transferred to a Fluorometric Imaging Plate Reader (FLIPR). Upon addition the effect of the compounds on the change in [Ca^2+]i was examined to determine if the compounds were agonists or antagonists (ability to block SDF-1 alpha activity) at the CXCR4 receptor. IC50 values are determined and pKb values are calculated using the Leff and Dougall equation: KB=IC50/((2+([agonist]/EC50̂b)̂1/b -1) Where IC50 is that defined by the antagonist concentration-response curve [agonist] is the EC80 concentration of agonist used EC50 is that defined by the agonist concentration-response curve b is the slope of the agonist concentration-response curve.

The subject of data set [1] is HIV-1 gp160 (HXB2 strain) mediated fusion with HOS (hCXCR4/hCCR5/hCD4/pHIV-LTR-luciferase) cells. As to the kind of experiment: Cell/cell fusion assay (HEK-293 expressing HIV-1 tat, rev, gp160 with HOS hCXCR4/hCCR5/hCD4/pHIV-LTR-luciferase cells). Particulars: Homo sapiens, HEK293; luciferase readout after 24 h; read-out: Fusion assay (pIC50) (converted). From the text: The complete coding sequences of HIV-1 tat (GenBank Accession No. X07861) and rev (GenBank Accession No. M34378) were cloned into pcDNA3.1 expression vectors containing G418 and hygromycin resistance genes, respectively. The complete coding sequence of the HIV-1 (HXB2 strain) gp160 envelope gene (nucleotide bases 6225-8795 of GenBank Accession No. K03455) was cloned into plasmid pCRII-TOPO. The three HIV genes were additionally inserted into the baculovirus shuttle vector, pFastBacMam1, under the transcriptional control of the CMV promoter. A construction of the pHIV-I LTR containing mutated NFkB sequences linked to the luciferase reporter gene was prepared by digesting pcDNA3.1, containing the G418 resistance gene, with Nru I and Bam HI to remove the CMV promoter. LTR-luc was then cloned into the Nru I/Bam HI sites of the plasmid vector. Plasmid preparations were performed after the plasmids were amplified in Escherichia coli strain DH5-alpha. The fidelity of the inserted sequences was confirmed by double-strand nucleotide sequencing using an ABI Prism Model 377 automated sequencer.
Recombinant BacMam baculoviruses were constructed from pFastBacMam shuttle plasmids by using the bacterial cell-based Bac-to-Bac system. Viruses were propagated in Sf9 (Spodoptera frugiperda) cells cultured in Hink's TNM-FH Insect media supplemented with 10% (v/v) fetal bovine serum and 0.1% (v/v) pluronic F-68 according to established protocols.
Human osteosarcoma (HOS) cells that naturally express human CXCR4 were transfected with human CCR5, human CD4 and the pHIV-LTR-luciferase plasmid using FuGENE 6 transfection reagent. Single cells were isolated and grown under selection condition in order to generate a stable HOS (hCXCR4/hCCR5/hCD4/pHIV-LTR-luciferase) clonal cell line. The cells were maintained in Dulbeccos modified Eagles media supplemented with 10% fetal calf serum (FCS), G418 (400 ug/ml), puromycin (1 ug/ml), mycophenolic acid (40 ug/ml), xanthine (250 ug/ml) and hypoxanthine (13.5 ug/ml) to maintain a selection pressure for cells expressing the LTR-luciferase, hCCR5 and hCD4, respectively. Human embryonic kidney (HEK-293) cells stably transfected to express the human macrophage scavenging receptor (Class A, type 1; GenBank Accession No. D90187), were maintained in DMEM/F-12 media (1:1) supplemented with 10% FCS and 1.5 ug/ml puromycin. The expression of this receptor by the HEK-293 cells enhances their ability to stick to tissue culture treated plasticware.
HEK-293 cells were harvested using enzyme-free cell dissociation buffer. The cells were resuspended in DMEM/F-12 media supplemented with 10% FCS and 1.5 ug/ml and counted. Tranductions were performed by direct addition of BacMam baculovirus containing insect cell media to cells. The cells were simultaneously transduced with BacMam baculovirus expressing HIV-1 tat, HIV-1 rev and HIV-1 gp160 (from the HXB2 HIV strain). Routinely an MOI of 10 of each virus was added to the media containing the cells. 2 mM butyric acid was also added to the cells at this stage to increase protein expression in transduced cells. The cells were subsequently mixed and seeded into a flask at 30 million cells per T225. The cells were incubated at 37° C., 5% CO2, 95% humidity for 24 h to allow for protein expression.
HEK and HOS cells were harvested in DMEM/F-12 media containing 2% FCS and DMEM media containing 2% FCS, respectively, with no selection agents added. Compounds were plated as 1 ul spots in 100% DMSO on a 96-well CulturPlate plates. HOS cells (50 ul) were added first to the wells, followed immediately by the HEK cells (50 ul). The final concentration of each cell type was 20,000 cells per well. Following these additions, the cells were returned to a tissue culture incubator (37° C.; 5% CO2/95% air) for an additional 24 h.
Following the 24 h incubation, total cellular luciferase activity was measured using the LucLite Plus assay kit (Packard, Meridien, Conn.). […]

Data set [2] is described as follows: Compound cytotoxicity in the absence of virus (CellTiter-Glo). Particulars: human; non-infected HOS cultures, cell viability; read-out: Cytotox (pIC50) (converted). On the procedure: (§1) Compounds were profiled against two HIV-1 viruses, the M-tropic (CCR5 utilizing) Ba-L strain and the T-tropic (CXCR4 utilizing) IIIB strain. Both viruses were propagated in human peripheral blood lymphocytes. Compounds were tested for there ability to block infection of the HOS cell line (expressing hCXCR4/hCCR5/hCD4/pHIV-LTR-luciferase) by either HIV-1 Ba-L or HIV-1 IIIB. Compound cytotoxicity was also examined in the absence of virus addition.
(§2) HOS cells (expressing hCXCR4/hCCR5/hCD4/pHIV-LTR-luciferase) were harvested and diluted in Dulbeccos modified Eagles media supplemented with 2% FCS and non-essential amino acid to a concentration of 60,000 cells/ml. The cells were plated into 96-well plates (100 ul per well) and the plates were placed in a tissue culture incubator (37° C.; 5% CO2/95% air) for a period of 24 h.
(§3) Subsequently, 50 ul of the desired drug solution (4 times the final concentration) was added to each well and the plates were returned to the tissue culture incubator (37° C.; 5% CO2/95% air) for 1 h. Following this incubation 50 ul of diluted virus was added to each well (approximately 2 million RLU per well of virus). The plates were returned to the tissue culture incubator (37° C.; 5% CO2/95% air) and were incubated for a further 96 h.
(§4) Following this incubation the endpoint for the virally infected cultures was quantified following addition of Steady-Glo Luciferase assay system reagent (Promega, Madison, Wis.). Cell viability or non-infected cultures was measured using a CellTiter-Glo luminescent cell viability assay system (Promega, Madison, Wis.). All luminescent readouts are performed on a Topcount luminescence detector (Packard, Meridien, Conn.).
(In general: ATP-based viability assays read luminescence as a measure of living cells.)

In data set [3] the test system is HIV-1 IIIB strain, T-tropic (CXCR4 utilizing). As to the kind of experiment: HOS HIV-1 infectivity assay. How it is done:
as §1, §2, §3, §4

The mark [4] stands for this setting: Human immunodeficiency virus 1, IIIB, HOS HIV anti-infectivity assay, strain not named in Table 2, read-out: Activity Level.
Setting [5] is: Human immunodeficiency virus 1, HOS cells, HIV-1 IIIB, 96 h, luciferase, read-out: HOS (3B).

Where two headings read alike, the source gives them in different places. Where only a bound is given, the exact number is not on record here.

T1 sequence (P61073 whole entry): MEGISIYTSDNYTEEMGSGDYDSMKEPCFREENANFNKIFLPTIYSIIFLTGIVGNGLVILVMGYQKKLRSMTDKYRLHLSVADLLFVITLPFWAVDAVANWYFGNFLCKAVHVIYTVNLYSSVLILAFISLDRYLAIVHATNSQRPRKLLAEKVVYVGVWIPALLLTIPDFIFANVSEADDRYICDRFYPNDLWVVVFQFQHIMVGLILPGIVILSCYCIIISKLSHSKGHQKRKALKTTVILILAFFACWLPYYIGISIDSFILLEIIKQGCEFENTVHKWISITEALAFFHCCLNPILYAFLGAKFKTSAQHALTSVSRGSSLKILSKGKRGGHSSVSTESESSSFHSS

As for `Cc1cccn2cc(CN(CCCCN)C3CCCc4cccnc43)nc12` (stereo not drawn) [Example 2, N-[(8-Methylimidazo[1,2-a]pyridin-2-yl)methyl]-N-(5,6,7,8-tetrahydro-8-quinolinyl)-1,4-butanediamine], the IC50 on CXCR4 receptor is 53.7 nM; in data set [1] it was 324 nM; in data set [3] (Human immunodeficiency virus 1, IIIB, HOS, 96 h, read-out: HOS (3B) (μM)) it was 0.023 µM; in data set [3] (Human immunodeficiency virus 1, IIIB, read-out: Activity Level), below 0.1 µM. Moreover, the IC50 at 96 h in data set [2] is above 100000 nM.

Regarding `Cc1ccn2cc(CN(CCCCN)C3CCCc4cccnc43)nc2c1` (stereo not drawn) [Example 3, N-[(7-Methylimidazo[1,2-a]pyridin-2-yl)methyl]-N-(5,6,7,8-tetrahydro-8-quinolinyl)-1,4-butanediamine], the IC50 is 759 nM at CXCR4 receptor, 813 nM in data set [1], 0.1 to 0.5 µM in data set [3] (setting [4]) and 0.223 µM in data set [3] (setting [5]). For the same compound, the IC50 at 96 h in data set [2] is above 100000 nM.

For `Cc1ccc2nc(CN(CCCCN)C3CCCc4cccnc43)cn2c1` (stereo not drawn) [Example 4, N-[(6-Methylimidazo[1,2-a]pyridin-2-yl)methyl]-N-(5,6,7,8-tetrahydro-8-quinolinyl)-1,4-butanediamine], the IC50 on CXCR4 receptor is 52.5 nM; in data set [1], 97.7 nM; in data set [3] (setting [4]), below 0.1 µM; in data set [3] (setting [5]), 0.057 µM. Also, the IC50 at 96 h in data set [2] was above 100000 nM.

Turning to `Cc1cccc2nc(CN(CCCCN)C3CCCc4cccnc43)cn12` (stereo not drawn) [Example 5, N-[(5-Methylimidazo[1,2-a]pyridin-2-yl)methyl]-N-(5,6,7,8-tetrahydro-8-quinolinyl)-1,4-butanediamine], the IC50 on CXCR4 receptor is 12 nM; in data set [1], 39.8 nM; in data set [3] (setting [4]), below 0.1 µM; in data set [3] (setting [5]) it was 0.017 µM. In data set [2], the IC50 at 96 h was above 100000 nM.

On to `NCCCCN(Cc1cn2ccc(C(F)(F)F)cc2n1)C1CCCc2cccnc21` (stereo not drawn) [Example 6, N-(5,6,7,8-Tetrahydro-8-quinolinyl)-N-{[7-(trifluoromethyl)imidazo[1,2-a]pyridin-2-yl]methyl}-1,4-butanediamine], for which the IC50 on CXCR4 receptor was 2190 nM; in data set [1] it was 4470 nM; in data set [3] (setting [4]) it was 0.5 to 10 µM; in data set [3] (setting [5]) it was 1.4 µM. Further, in data set [2], the IC50 at 96 h is above 100000 nM.

Take `NCCCCN(Cc1cn2cc(C(F)(F)F)ccc2n1)C1CCCc2cccnc21` (stereo not drawn) [Example 7, N-(5,6,7,8-Tetrahydro-8-quinolinyl)-N-{[6-(trifluoromethyl)imidazo[1,2-a]pyridin-2-yl]methyl}-1,4-butanediamine]: the IC50 on CXCR4 receptor was 63.1 nM; in data set [1], 191 nM; in data set [3] (setting [4]), 0.1 to 0.5 µM; in data set [3] (setting [5]), 0.161 µM. Besides, the IC50 at 96 h in data set [2] is above 100000 nM.

As to `NCCCCN(Cc1cn2c(C(F)(F)F)cccc2n1)C1CCCc2cccnc21` (stereo not drawn) [Example 8, N-(5,6,7,8-Tetrahydro-8-quinolinyl)-N-{[5-(trifluoromethyl)imidazo[1,2-a]pyridin-2-yl]methyl}-1,4-butanediamine], the IC50 on CXCR4 receptor was 19.5 nM; in data set [1], 174 nM; in data set [3] (setting [4]), below 0.1 µM; in data set [3] (setting [5]), 0.045 µM. Besides, the IC50 at 96 h in data set [2] is above 100000 nM.

Turning to `N#Cc1ccc2nc(CN(CCCCN)C3CCCc4cccnc43)cn2c1` (stereo not drawn) [Example 9, 2-{[(4-Aminobutyl)(5,6,7,8-tetrahydro-8-quinolinyl)amino]methyl}imidazo [1,2-a]pyridine-6-carbonitrile], the IC50 on CXCR4 receptor is 112 nM; in data set [1] it was 372 nM; in data set [3] (setting [4]), 0.1 to 0.5 µM; in data set [3] (setting [5]), 0.112 µM. The IC50 at 96 h in data set [2] was above 100000 nM.

Take `NCCCCN(Cc1cn2cc(Cl)ccc2n1)C1CCCc2cccnc21` (stereo not drawn) [Example 10, N-[(6-Chloroimidazo[1,2-a]pyridin-2-yl)methyl]-N-(5,6,7,8-tetrahydro-8-quinolinyl)-1,4-butanediamine]: the IC50 on CXCR4 receptor is 29.5 nM; in data set [1] it was 115 nM; in data set [3] (setting [4]) it was below 0.1 µM; in data set [3] (setting [5]), 0.041 µM. Besides, in data set [2], the IC50 at 96 h was above 100000 nM.
